PubChem BioAssay AID1645862 (Buhrlage Lab, Dana-Farber Cancer Institute and Novartis …, 2021)
The source made the active and inactive calls. No rule for the calls is given here.

target: Ubiquitin carboxyl-terminal hydrolase 8 (Homo sapiens) (UniProt P40818); assay: Ubiquitin-specific protease 8 inhibitors, concentration-effect, biochemical, validation of initial actives (AID 1645862); conditions: recombinant USP8 deubiquitinase activity assay;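 also: potency reflects inhibition of USP8 cleavage of a ubiquitin rhodamine substrate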
Sequence (P40818 whole entry, looked up): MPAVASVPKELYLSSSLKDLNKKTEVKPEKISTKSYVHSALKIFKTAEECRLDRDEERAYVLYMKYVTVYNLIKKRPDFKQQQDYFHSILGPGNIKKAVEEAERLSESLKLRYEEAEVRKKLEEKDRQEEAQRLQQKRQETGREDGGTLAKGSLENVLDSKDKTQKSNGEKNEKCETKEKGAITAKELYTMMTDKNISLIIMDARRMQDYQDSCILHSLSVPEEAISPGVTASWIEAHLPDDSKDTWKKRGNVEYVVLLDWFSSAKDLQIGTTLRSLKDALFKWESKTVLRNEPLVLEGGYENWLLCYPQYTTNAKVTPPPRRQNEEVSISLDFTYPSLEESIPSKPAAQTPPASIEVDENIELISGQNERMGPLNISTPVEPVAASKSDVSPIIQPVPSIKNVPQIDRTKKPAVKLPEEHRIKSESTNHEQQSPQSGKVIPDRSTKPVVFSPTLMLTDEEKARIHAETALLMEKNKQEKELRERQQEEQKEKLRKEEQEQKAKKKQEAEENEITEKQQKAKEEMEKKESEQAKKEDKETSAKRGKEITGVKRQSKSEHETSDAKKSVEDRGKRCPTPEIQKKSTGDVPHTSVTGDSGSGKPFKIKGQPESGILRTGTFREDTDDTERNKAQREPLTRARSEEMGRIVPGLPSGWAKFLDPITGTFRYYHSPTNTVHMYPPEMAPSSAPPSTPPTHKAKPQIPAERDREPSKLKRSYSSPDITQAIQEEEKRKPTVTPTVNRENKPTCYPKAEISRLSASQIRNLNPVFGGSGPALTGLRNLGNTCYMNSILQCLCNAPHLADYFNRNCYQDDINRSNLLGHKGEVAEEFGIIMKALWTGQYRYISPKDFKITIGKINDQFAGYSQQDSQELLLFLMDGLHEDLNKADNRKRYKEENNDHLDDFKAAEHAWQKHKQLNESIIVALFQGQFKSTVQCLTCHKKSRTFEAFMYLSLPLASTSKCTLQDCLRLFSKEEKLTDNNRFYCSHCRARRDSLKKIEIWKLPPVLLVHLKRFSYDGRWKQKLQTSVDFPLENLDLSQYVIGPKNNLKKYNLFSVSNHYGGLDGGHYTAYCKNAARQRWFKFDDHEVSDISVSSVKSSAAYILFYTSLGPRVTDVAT

Q: For `CCOc1ccc(NC(=O)Cn2c(=O)n(CCC(=O)NCc3ccco3)c(=O)c3ccccc32)cc1`, which IC50 is on record?
A: > 40 µM (inactive)

Q: How did the IC50 turn out when `Cc1cc(NC(=O)CSc2ncc(-c3cccc([N+](=O)[O-])c3)n2-c2cccc(Cl)c2)no1` was run?
A: > 40 µM (inactive)

Q: `Cn1cc(C(=O)Nc2ccccc2)c2[nH]c(=O)n(Cc3ccccc3)c(=O)c21` was tested. Which IC50 did it give?
A: > 40 µM (inactive)

Q: For `CCc1nc(SCC(=O)Nc2ccc(Cl)c(Cl)c2)c2oc3ccccc3c2n1`, which IC50 is on record?
A: > 40 µM (inactive)

Q: With `Cc1cc(=O)[nH]c(NC2CCN(S(=O)(=O)c3ccccc3C(F)(F)F)CC2)n1` as the molecule, how does the IC50 read?
A: > 40 µM (inactive)

Q: Which IC50 does the source give for `O=C(Nc1cccc(Cl)c1)c1cc(-c2cccnc2)n[nH]1` here?
A: > 40 µM (inactive)

Q: How did the IC50 turn out when `O=C(Cc1ccc(-n2c(=O)c3ccccc3n(Cc3cccc([N+](=O)[O-])c3)c2=O)cc1)NC1CCCC1` was run?
A: > 40 µM (inactive)

Q: `COc1cc(Cn2cnc3c([nH]c4ccc(Br)cc43)c2=O)cc(OC)c1` was tested. Which IC50 did it give?
A: > 40 µM (inactive)

Q: For `COc1ccccc1N1CCN(C(=O)c2ccc3c(=O)n(CCc4ccccc4)c(=O)[nH]c3c2)CC1`, which IC50 is on record?
A: > 40 µM (inactive)

Q: `OC1CCCN(c2ncc(-c3cnccn3)c(-c3cccs3)n2)C1` (centres undefined) was tested. Which IC50 did it give?
A: > 40 µM (inactive)

Q: `Cc1noc(C)c1COc1cccc(C(=O)Nc2cc(Cl)ccc2-n2cncn2)c1` was tested. Which IC50 did it give?
A: > 40 µM (inactive)

Q: How did the IC50 turn out when `O=C(c1ccco1)N1CCCC1c1nc(-c2ccccc2)n[nH]1` (centres undefined) was run?
A: > 40 µM (inactive)

Q: How did the IC50 turn out when `COc1ccc(Oc2cc3n(c(=O)n2)CCc2cc(OC)c(OC)cc2-3)cc1` was run?
A: > 40 µM (inactive)

Q: Which IC50 does the source give for `O=c1c2ccccc2oc2nc(-c3cccs3)n(-c3ccccc3)c(=O)c12` here?
A: 2.3 µM

Q: With `COc1cc2c(=O)n(CCC(=O)NC3CCCC3)c(=O)n(CC(=O)Nc3cccc(Cl)c3)c2cc1OC` as the molecule, how does the IC50 read?
A: > 40 µM (inactive)

Q: `Cc1ccc(NC(=O)Cc2nnc3c(-c4nc(C5CC5)no4)cccn23)cc1` was tested. Which IC50 did it give?
A: 18.7 µM

Q: `Cc1ccc(Cn2c(=O)c3ncccc3n(CC(=O)NCc3ccc(F)cc3)c2=O)cc1` was tested. Which IC50 did it give?
A: > 40 µM (inactive)

Q: For `CCc1nnc(C(=O)Nc2ccc(C(=O)NCc3ccc(OC(C)C)cc3)cc2)s1`, which IC50 is on record?
A: > 40 µM (inactive)

Q: For `COc1ccc(-c2nc(-c3cc4cc(OC)ccc4[nH]c3=O)no2)cc1`, which IC50 is on record?
A: > 40 µM (inactive)

Q: Which IC50 does the source give for `Cc1ccc(-n2cc(-c3noc(C(=O)Nc4ccc(F)cc4C)n3)nn2)cc1` here?
A: 7.16 µM

Q: `C=C/C(C)=C/[C@@]1(C)SC(=O)C(C)=C1O` was tested. Which IC50 did it give?
A: 14.5 µM

Q: With `CCCN1CCN(C(=O)Cn2c(C)ccc(NC(=O)c3ccccc3)c2=O)CC1` as the molecule, how does the IC50 read?
A: > 40 µM (inactive)

Q: Which IC50 does the source give for `COC(=O)c1ccc(NC(=O)/C=C/c2ccc(F)cc2)cc1` here?
A: > 40 µM (inactive)

Q: Which IC50 does the source give for `Cc1cc(NS(=O)(=O)c2ccc(NC(=O)c3ccc(N4CCCC4)c([N+](=O)[O-])c3)cc2)no1` here?
A: > 40 µM (inactive)

Q: With `C/C=C/C=C/[C@@H]1Cc2cc(O)cc(O)c2O1` as the molecule, how does the IC50 read?
A: 20.2 µM

Q: How did the IC50 turn out when `CC1(C(=O)NCc2ccc(F)cc2)Cn2nc(-c3ccco3)cc2C(=O)N1c1ccc2c(c1)OCCO2` (centres undefined) was run?
A: > 40 µM (inactive)

Q: `O=C(COc1ncnc2sc3c(c12)CCCC3)Nc1ccc2c(c1)OCO2` was tested. Which IC50 did it give?
A: > 40 µM (inactive)

Q: For `O=C(COc1ccccc1-c1nnc(-c2ccccc2)o1)NCc1ccco1`, which IC50 is on record?
A: 37.9 µM

Q: With `CS(=O)(=O)c1cccc(-c2nnc(NC(=O)c3ccc(Cc4ccccc4)cc3)o2)c1` as the molecule, how does the IC50 read?
A: > 40 µM (inactive)

Q: With `COc1ccc2c(c1)c(CC(=O)Nc1ccc(N3CCOCC3)cc1)c(C)n2C(=O)c1ccc(Cl)cc1` as the molecule, how does the IC50 read?
A: > 40 µM (inactive)

Q: With `Cc1cccc(NC(=O)Nc2ccccc2OCc2cc(=O)n3cccc(C)c3n2)c1` as the molecule, how does the IC50 read?
A: > 40 µM (inactive)

Q: For `Cc1cccc(NC(=O)CSc2nc3c(cc2C#N)C(=O)CCC3)c1`, which IC50 is on record?
A: > 40 µM (inactive)

Q: `O=C(Nc1ccncc1)c1cn(Cc2ccccc2)cc2c(=O)n(-c3ccccc3)nc1-2` was tested. Which IC50 did it give?
A: > 40 µM (inactive)

Q: How did the IC50 turn out when `Cc1ccc(Cl)cc1NC(=O)c1cc(-c2ccccn2)n[nH]1` was run?
A: > 40 µM (inactive)

Q: Which IC50 does the source give for `CC/C=C\C/C=C\C/C=C\CCCCCCCC(=O)O` here?
A: 17.7 µM

Q: Which IC50 does the source give for `O=C(CCc1ccc(S(=O)(=O)N2CCOCC2)cc1)OCC(=O)c1ccc(-c2ccccc2)cc1` here?
A: > 40 µM (inactive)

Q: How did the IC50 turn out when `Cc1ccc(NC(=O)CSc2ccc(NC(=O)c3ccc(C(=O)O)cc3C(=O)O)cc2)c(C)c1` was run?
A: > 40 µM (inactive)

Q: With `O=C(c1cnc2ccccc2n1)N1CCC(S(=O)(=O)c2ccc(-c3ccco3)cc2)CC1` as the molecule, how does the IC50 read?
A: > 40 µM (inactive)

Q: With `CCc1nc(SCC(=O)Nc2cc(Cl)ccc2C)c2oc3ccccc3c2n1` as the molecule, how does the IC50 read?
A: > 40 µM (inactive)

Q: Which IC50 does the source give for `c1ccc(CNc2ccc(-c3ccccc3)nn2)cc1` here?
A: > 40 µM (inactive)

Q: `O=C(Cn1c(-c2nc(-c3cccc(F)c3)no2)cccc1=O)NCc1ccco1` was tested. Which IC50 did it give?
A: > 40 µM (inactive)

Q: For `O=C(c1ccncc1)N1CCN(CC2CC=CCC2)CC1` (centres undefined), which IC50 is on record?
A: > 40 µM (inactive)

Q: How did the IC50 turn out when `NS(=O)(=O)c1cccc(NS(=O)(=O)c2ccc(/C=C/C(=O)OCC(=O)c3ccc(Br)cc3)cc2)c1` was run?
A: > 40 µM (inactive)

Q: How did the IC50 turn out when `O=C(c1cnccn1)N1CC[C@@H]2CNS(=O)(=O)[C@@H]2CC1` was run?
A: > 40 µM (inactive)
